Laboratory results: patent US6452014B1, “Telomerase inhibitors and methods of their use” (Geron Corporation, priority 2000, dated 2002)
Values joined by “and” are separate entries in the source; they are usually repeats but may differ in a detail not shown here. Equal entries are not always repeated.

Target: T1, partially purified telomerase from a nuclear extract of HEK293 cells (Homo sapiens, UniProt O14746)
T1 construct: partially purified telomerase from a nuclear extract of HEK293 cells; endogenous in cells; host or cells: HEK293 cells (nuclear extract, partially purified)
Assay: In vitro telomerase inhibition, membrane hybridization assay (method of U.S. Pat. No. 5,760,062)
Format: biochemical
Details: replicate determinations listed in one cell
Description: Alternatively, telomerase inhibitory activity of the compounds was measured in accordance with a known method (U.S. Pat. No. 5,760,062). That is, a dimethyl sulfoxide (DMSO) solution of each agent was mixed with partially purified telomerase from a nuclear extract of HEK293 cells and incubated in the presence of an oligodeoxynucleotide to be used as the substrate and deoxynucleotide triphosphate. The obtained reacted product (DNA having a telomere sequence) was adsorbed on a membrane, and hybridization was carried out using a labeled oligonucleotide probe having a sequence complementary to the telomere sequence. The inhibition ratio was calculated based on the ratio of the signal of label on the membrane in the presence of the agent to the signal of label in the absence of the agent (control). Also, concentration of each agent which inhibits 50% of the enzyme activity based on the control was used as IC50.

T1 sequence (O14746 whole entry): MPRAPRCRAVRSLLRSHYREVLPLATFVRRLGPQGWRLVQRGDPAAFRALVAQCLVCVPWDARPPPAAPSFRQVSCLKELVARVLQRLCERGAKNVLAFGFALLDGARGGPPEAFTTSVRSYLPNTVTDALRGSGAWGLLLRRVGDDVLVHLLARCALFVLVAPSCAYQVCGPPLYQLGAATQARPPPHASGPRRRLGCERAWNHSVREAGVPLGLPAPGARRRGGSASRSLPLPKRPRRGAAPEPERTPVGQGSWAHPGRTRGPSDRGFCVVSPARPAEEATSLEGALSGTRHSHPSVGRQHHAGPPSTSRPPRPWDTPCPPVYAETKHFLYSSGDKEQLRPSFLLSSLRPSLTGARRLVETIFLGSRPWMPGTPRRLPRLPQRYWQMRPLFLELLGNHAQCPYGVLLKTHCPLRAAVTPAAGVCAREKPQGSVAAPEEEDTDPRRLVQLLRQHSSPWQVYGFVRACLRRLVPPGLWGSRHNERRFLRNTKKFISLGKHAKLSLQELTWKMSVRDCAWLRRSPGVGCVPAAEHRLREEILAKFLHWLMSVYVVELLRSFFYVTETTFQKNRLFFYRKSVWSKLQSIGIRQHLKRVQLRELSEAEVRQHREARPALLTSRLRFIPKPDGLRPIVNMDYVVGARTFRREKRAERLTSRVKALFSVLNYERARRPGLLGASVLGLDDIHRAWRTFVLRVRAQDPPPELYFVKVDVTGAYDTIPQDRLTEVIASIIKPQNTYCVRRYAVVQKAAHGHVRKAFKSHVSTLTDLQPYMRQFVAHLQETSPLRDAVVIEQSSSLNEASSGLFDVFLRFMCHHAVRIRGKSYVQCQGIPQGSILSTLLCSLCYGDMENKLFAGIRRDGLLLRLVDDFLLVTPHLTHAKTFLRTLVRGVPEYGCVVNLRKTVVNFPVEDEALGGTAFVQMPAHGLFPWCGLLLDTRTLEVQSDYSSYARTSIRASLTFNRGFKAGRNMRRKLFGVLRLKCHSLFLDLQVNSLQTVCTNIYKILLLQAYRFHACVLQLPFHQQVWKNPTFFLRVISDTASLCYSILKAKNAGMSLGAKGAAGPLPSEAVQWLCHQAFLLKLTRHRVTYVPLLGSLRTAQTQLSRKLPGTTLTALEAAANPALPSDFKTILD

Row | IC50 | Compound
1 | 290 nM and 550 nM and 510 nM | O=C1NC(=O)/C(=C/c2ccc3cc(-c4nc5cc(Cl)c(Cl)cc5[nH]4)ccc3c2)S1 [Example 40, 5,6-Dichloro-2-[6-[(2,4-dioxothiazolidin-5-ylidene)methyl]naphth-2-yl]benzimidazole]
2 | 610 nM | O=C1NC(=O)/C(=C/c2ccc3[nH]c(-c4nc5cc(Cl)c(Cl)cc5[nH]4)cc3c2)S1 [Example 45, 5,6-Dichloro-2-[5-[(2,4-dioxothiazolidin-5-ylidene)methyl]indol-2-yl]benzimidazole]
3 | 4300 nM and 3690 nM | O=C1NC(=O)/C(=C/c2ccc(-c3nc4cc([N+](=O)[O-])ccc4[nH]3)cc2)S1 [Example 4, 2-[4-[(2,4-Dioxothiazolidin-5-ylidene)methyl]phenyl]-5-nitrobenzimidazole]
4 | 4980 nM and 2950 nM | O=C1NC(=O)/C(=C/c2ccc(-c3nc4c(C(F)(F)F)cc(Cl)cc4[nH]3)cc2)S1 [Example 5, 6-Chloro-2-[4-[(2,4-dioxothiazolidin-5-ylidene)methyl]phenyl]-4-(trifluoromethyl)benzimidazole]
5 | 2280 nM and 3260 nM | CCOC(=O)Cn1c(-c2ccc(/C=C3\SC(=O)NC3=O)cc2)nc2cc(Cl)c(Cl)cc21 [Example 20, Ethyl [5,6-Dichloro-2-[4-[(2,4-dioxothiazolidin-5-ylidene)methyl]phenyl]-benzimidazol-1-yl]acetate]
6 | 1050 nM and 1520 nM | O=C1NC(=O)/C(=C/c2ccc(-c3nc4ccccc4[nH]3)cc2)S1 [Example 2, 2-[4-[(2,4-Dioxothiazolidin-5-ylidene)methyl]phenyl]benzimidazole]
7 | 1860 nM and 1100 nM and 1220 nM and 850 nM and 1140 nM | O=C1NC(=O)/C(=C/c2ccc(-c3nc4cc(Cl)c(Cl)cc4[nH]3)cc2)S1 [Example 1, 5,6-Dichloro-2-[4-[(2,4-dioxothiazolidin-5-ylidene)methyl]phenyl]benzimidazole]
8 | 3040 nM and 3350 nM | O=C1NC(=O)/C(=C/c2ccc(-c3nc4cc(C(=O)c5ccccc5)ccc4[nH]3)cc2)S1 [Example 6, 5-Benzoyl-2-[4-[(2,4-dioxothiazolidin-5-ylidene)methyl]phenyl]benzimidazole]
9 | 5440 nM and 6200 nM | Cc1cc2nc(-c3ccc(/C=C4\SC(=O)NC4=O)cc3)[nH]c2cc1C [Example 3, 5,6-Dimethyl-2-[4-[(2,4-dioxothiazolidin-5-ylidene)methyl]phenyl]benzimidazole]
10 | 19200 nM and 15900 nM | CN(C)CCn1c(-c2ccc(/C=C3\SC(=O)NC3=O)cc2)nc2cc(Cl)c(Cl)cc21 [Example 21, 5,6-Dichloro-1-(2-dimethyaminoethyl)-2-[4-[(2,4-dioxothiazolidin-5-ylidene)methyl]phenyl]benzimidazole]
11 | 5400 nM | O=C1NC(=O)/C(=C/c2cc3cc(-c4nc5cc(Cl)c(Cl)cc5[nH]4)ccc3[nH]2)S1 [Example 46, 5,6-Dichloro-2-[2-[(2,4-dioxothiazolidin-5-ylidene)methyl]indol-5-yl]benzimidazole]

More lines, now with the values behind:

Row | Compound | IC50
12 | O=C1NC(=O)/C(=C/c2ccc(-c3nc4cc(Cl)c(Cl)cc4[nH]3)s2)S1 [Example 32, 5,6-Dichloro-2-[2-[(2,4-dioxothiazolidin-5-ylidene)methyl]thiophen-5-5-yl]benzimidazole] | 1960 nM and 1910 nM
13 | O=C1NC(=O)/C(=C/c2ccc(-c3nc4cc(Cl)c(Cl)cc4[nH]3)o2)S1 [Example 30] | 5190 nM and 2760 nM
14 | O=C1NC(=O)/C(=C/c2ccc(-c3nc4cc(Cl)c(Cl)cc4[nH]3)c3ccccc23)S1 [Example 39, 5,6-Dichloro-2-[4-[(2,4-dioxothiazolidin-5-ylidene)methyl]naphth-1-yl]benzimidazole] | 440 nM and 920 nM and 1010 nM
15 | O=C1NC(=O)/C(=C/c2cc(Br)c(-c3nc4cc(Cl)c(Cl)cc4[nH]3)s2)S1 [Example 29, 5,6-Dichloro-2-[3-bromo-5-[(2,4-dioxothiazolidin-5-ylidene)methyl]thiophen-2-yl]benzimidazole] | 1890 nM and 2260 nM
16 | O=C1NC(=O)C(Cc2ccc(-c3nc4cc(Cl)c(Cl)cc4[nH]3)cc2)S1 (stereo not shown) [Example 28, 2-[4-[(2,4-Dioxothiazolidin-5-yl)methyl]phenyl]-5,6-dichlorobenzimidazole] | 14500 nM and 15000 nM
17 | Cn1c(/C=C2\SC(=O)NC2=O)ccc1-c1nc2cc(Cl)c(Cl)cc2[nH]1 [Example 33, 2-[2-[(2,4-Dioxothiazolidin-5-ylidene)methyl]-1-methylpyrrol-5-yl]-5,6-dichlorobenzimidazole] | 3180 nM and 2470 nM
18 | O=C1NC(=O)/C(=C/c2ccc(-c3nc4ccccc4n3Cc3ccc(Cl)c(Cl)c3)cc2)S1 [Example 14, 1-(3,4-Dichlorobenzyl)-2-[4-[(2,4-dioxothiazolidin-5ylidene)methyl]-phenyl]benzimidazole] | 1610 nM and 1920 nM
19 | Cc1cc2nc(-c3ccc(/C=C4\SC(=O)NC4=O)cc3)n(Cc3ccc(Cl)c(Cl)c3)c2cc1C [Example 15, 1-(3,4-Dichlorobenzyl)-5,6-dimethyl-2-[4-[(2,4-dioxothiazolidin-5-ylidene)methyl]phenyl]benzimidazole] | 3010 nM and 2430 nM
